In ChEMBL document CHEMBL1201862, “PubChem BioAssay data set” (2004) one finds IC50 data, which are given here for two compounds.

The structures appear in SMILES notation. Calls of active or inactive are those of the source. No stated cut-off is given here; in the data, actives have a measured IC50 and inactives only a lower limit.

In this assay the target is Envelope glycoprotein gp160 (Human immunodeficiency virus 1, UniProt Q6QLK5). The assay is described as follows: cell-free HIV fusion peptide-binding blockers – biochemical, uHTS, fluorescence dequenching, […] (AID 1986).
Sequence of Envelope glycoprotein gp160 (Q6QLK5 whole entry, the tested form may be a part): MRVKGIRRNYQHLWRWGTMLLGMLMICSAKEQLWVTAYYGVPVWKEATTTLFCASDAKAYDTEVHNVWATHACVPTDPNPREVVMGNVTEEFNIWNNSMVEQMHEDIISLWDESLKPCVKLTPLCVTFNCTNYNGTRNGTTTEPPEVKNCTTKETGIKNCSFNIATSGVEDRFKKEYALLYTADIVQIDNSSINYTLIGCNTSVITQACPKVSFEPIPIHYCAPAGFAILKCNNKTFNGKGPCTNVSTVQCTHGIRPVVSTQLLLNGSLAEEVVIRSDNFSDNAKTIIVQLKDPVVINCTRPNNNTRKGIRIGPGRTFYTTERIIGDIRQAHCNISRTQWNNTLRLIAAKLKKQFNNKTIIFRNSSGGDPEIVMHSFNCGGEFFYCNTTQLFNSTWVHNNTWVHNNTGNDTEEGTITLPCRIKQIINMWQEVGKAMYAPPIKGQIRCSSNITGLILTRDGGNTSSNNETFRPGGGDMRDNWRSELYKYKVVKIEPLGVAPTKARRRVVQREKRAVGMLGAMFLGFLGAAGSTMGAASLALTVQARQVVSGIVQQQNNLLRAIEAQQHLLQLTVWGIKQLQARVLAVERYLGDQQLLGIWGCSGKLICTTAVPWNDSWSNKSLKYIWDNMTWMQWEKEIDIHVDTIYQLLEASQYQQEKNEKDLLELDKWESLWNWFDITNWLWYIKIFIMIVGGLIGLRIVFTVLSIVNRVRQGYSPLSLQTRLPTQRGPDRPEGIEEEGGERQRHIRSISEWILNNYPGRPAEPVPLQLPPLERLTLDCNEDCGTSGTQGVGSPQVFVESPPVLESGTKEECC

Usually IC50 stands for the concentration needed to halve the response being measured. In the case of `O=C(O)CN1C(=O)/C(=C\c2cccc(OCc3ccc(Cl)cc3Cl)c2)SC1=S`, the 50% inhibitory concentration (IC50) is 13.1 µM (active).
The figure for `O=C(O)c1ccccc1NS(=O)(=O)c1ccc(NNC(=S)Nc2ccc(OC(F)F)cc2)c([N+](=O)[O-])c1` is 8.21 µM (active).
